Assay results: ChEMBL document CHEMBL2151039, “Discovery and development of α7 nicotinic acetylcholine receptor modulators” (J Med Chem, 2011)
Where a SMILES comes first, the peptide text is derived from it. Bridges are numbered along the chain shown (N, C = ends).

Assays:
[1] = molecular target: Neuronal acetylcholine receptor subunit alpha-7 (Mus musculus, UniProt P49582); assay: Displacement of [125I]alpha-Bungarotoxin from alpha7 nAchR in mouse hippocampal membranes; type: cell membranes, Hippocampus
Neuronal acetylcholine receptor subunit alpha-7 (Mus musculus, UniProt P49582), sequence (P49582 whole entry): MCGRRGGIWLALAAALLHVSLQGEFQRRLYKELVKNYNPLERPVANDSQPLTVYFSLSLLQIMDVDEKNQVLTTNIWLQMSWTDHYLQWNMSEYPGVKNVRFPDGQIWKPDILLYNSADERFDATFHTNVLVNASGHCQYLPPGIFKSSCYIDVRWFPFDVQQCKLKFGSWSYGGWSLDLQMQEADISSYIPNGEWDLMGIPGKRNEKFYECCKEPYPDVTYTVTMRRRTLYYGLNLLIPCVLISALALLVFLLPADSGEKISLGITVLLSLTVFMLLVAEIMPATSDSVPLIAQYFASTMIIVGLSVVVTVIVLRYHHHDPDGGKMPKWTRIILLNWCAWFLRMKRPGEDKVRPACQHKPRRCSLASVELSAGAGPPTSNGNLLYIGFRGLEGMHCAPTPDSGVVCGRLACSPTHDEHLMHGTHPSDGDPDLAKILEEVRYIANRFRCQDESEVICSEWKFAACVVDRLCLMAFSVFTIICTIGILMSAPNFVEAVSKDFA

[2] = species: Homo sapiens; assay: Selectivity ratio of IC50 for nAChR to IC50 for human alpha7 nAChR
[3] = molecular target: Neuronal acetylcholine receptor subunit alpha-7 (Homo sapiens, UniProt P36544); assay: Antagonist activity at human alpha7 nAChR expressed in Xenopus oocyte; type: functional
Neuronal acetylcholine receptor subunit alpha-7 (Homo sapiens, UniProt P36544), sequence (P36544 whole entry): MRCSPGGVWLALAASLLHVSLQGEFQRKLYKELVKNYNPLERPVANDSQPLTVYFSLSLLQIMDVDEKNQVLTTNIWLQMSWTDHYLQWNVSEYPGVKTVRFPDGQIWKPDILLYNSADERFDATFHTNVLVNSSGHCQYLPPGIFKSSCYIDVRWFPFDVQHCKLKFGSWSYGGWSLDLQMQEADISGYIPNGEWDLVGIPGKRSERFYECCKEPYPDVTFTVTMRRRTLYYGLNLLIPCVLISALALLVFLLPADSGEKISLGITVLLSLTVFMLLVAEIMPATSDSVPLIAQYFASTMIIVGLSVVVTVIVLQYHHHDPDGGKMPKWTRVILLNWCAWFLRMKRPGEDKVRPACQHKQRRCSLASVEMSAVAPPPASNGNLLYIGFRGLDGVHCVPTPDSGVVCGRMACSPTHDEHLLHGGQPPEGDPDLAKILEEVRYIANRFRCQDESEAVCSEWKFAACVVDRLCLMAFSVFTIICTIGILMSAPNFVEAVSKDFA

CC(C)C[C@@H]1NC(=O)[C@H](CCCNC(=N)N)NC(=O)[C@@H]2CSSC[C@H](NC(=O)[C@H](CCC(=O)O)NC(=O)[C@@H](N)CC(=O)O)C(=O)N[C@@H](CSSC[C@@H](C(=O)N[C@@H](CCCNC(=N)N)C(=O)N[C@@H](CCCNC(=N)N)C(=O)N[C@@H](CCCNC(=N)N)C(=O)O)NC(=O)[C@H](CC(=O)O)NC(=O)[C@H](Cc3cnc[nH]3)NC(=O)[C@@H]3CCCN3C(=O)[C@H](CC(N)=O)NC(=O)[C@H](CC(N)=O)NC1=O)C(=O)N[C@@H](CO)C(=O)N[C@@H](CC(N)=O)C(=O)N1CCC[C@H]1C(=O)N[C@@H](C)C(=O)N2 (H-DECCSNPACRLNNPHDCRRR-OH; disulfide 3-9, 4-17)
Ki [1]: 7.04 nM
Ratio IC50 [2]: > 800
IC50 [3]: 1.09 nM
